IC50 and melting point data for 31 compounds are collected here from patent US7671084B2 (Wyeth, priority 2004, dated 2010).

Molecules are shown by their SMILES. Where a name gives a salt, the structure may show the parent alone. Read-outs that look alike come from different tables or passages of the source.

The target of one data set is T1, human ERβ (Homo sapiens, UniProt Q92731).
T1 construct: made in house; host or cells: E. coli (crude lysate)
The experiment in a line: Competition with [3H]-17β-estradiol for binding to ERβ. To be noted: ligand binding domain of human ERβ in E. coli crude lysate, 2 nM [3H]-17β-estradiol, 5-15 hours at room temperature. The method, then:
Representative examples of the invention were evaluated for their ability to compete with 17β-estradiol for both ERα and ERβ. This test procedure provides the methodology for one to determine whether a particular compound binds to the estrogen receptor (and is therefore “estrogenic”) and whether there is selectivity for ERα or ERβ. […] 17β-estradiol is included as a standard reference for comparison. The procedure used is briefly described below. A crude lysate of E. coli expressing the estrogen receptor ligand binding domains (D, E, & F) of human ERα or ERβ was prepared. Both receptors and compounds were diluted in 1× Dulbecco's PBS (DPBS) supplemented with 1 mM EDTA. Using a high binding masked microtiter plate, 100 uL of receptor (1 uG/well) was combined with 2 nm [^3H]-17β-estradiol and various concentrations of compound. After between 5 and 15 hours at room temperature, the plates were washed with DPBS/1 mM EDTA and bound radioactivity determined by liquid scintillation counting. The IC50 is defined as the concentration of compound that decreases total 17β-estradiol binding by 50%.

In a further data set the target is T2, human ERα (Homo sapiens, UniProt P03372).
T2 construct: made in house; host or cells: E. coli (crude lysate)
T2 sequence (P03372 311-547 limits assumed): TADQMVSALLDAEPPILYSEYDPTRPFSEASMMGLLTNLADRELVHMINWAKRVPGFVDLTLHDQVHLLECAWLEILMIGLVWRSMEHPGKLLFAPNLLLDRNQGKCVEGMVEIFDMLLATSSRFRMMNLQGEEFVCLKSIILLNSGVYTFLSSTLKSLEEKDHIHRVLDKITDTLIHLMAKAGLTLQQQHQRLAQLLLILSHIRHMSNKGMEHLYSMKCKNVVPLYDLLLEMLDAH
The experiment in a line: Competition with [3H]-17β-estradiol for binding to ERα. The conditions noted are these: ligand binding domain of human ERα in E. coli crude lysate, 2 nM [3H]-17β-estradiol, 5-15 hours at room temperature. The method, then:
Representative examples of the invention were evaluated for their ability to compete with 17β-estradiol for both ERα and ERβ. This test procedure provides the methodology for one to determine whether a particular compound binds to the estrogen receptor (and is therefore “estrogenic”) and whether there is selectivity for ERα or ERβ. The values are shown in the Table infra and are reported as IC50s. 17β-estradiol is included as a standard reference for comparison. The procedure used is briefly described below. A crude lysate of E. coli expressing the estrogen receptor ligand binding domains (D, E, & F) of human ERα or ERβ was prepared. Both receptors and compounds were diluted in 1× Dulbecco's PBS (DPBS) supplemented with 1 mM EDTA. Using a high binding masked microtiter plate, 100 uL of receptor (1 uG/well) was combined with 2 nm [^3H]-17β-estradiol and various concentrations of compound. After between 5 and 15 hours at room temperature, the plates were washed with DPBS/1 mM EDTA and bound radioactivity determined by liquid scintillation counting. The IC50 is defined as the concentration of compound that decreases total 17β-estradiol binding by 50%.

T1 sequence (Q92731 264-498 limits assumed): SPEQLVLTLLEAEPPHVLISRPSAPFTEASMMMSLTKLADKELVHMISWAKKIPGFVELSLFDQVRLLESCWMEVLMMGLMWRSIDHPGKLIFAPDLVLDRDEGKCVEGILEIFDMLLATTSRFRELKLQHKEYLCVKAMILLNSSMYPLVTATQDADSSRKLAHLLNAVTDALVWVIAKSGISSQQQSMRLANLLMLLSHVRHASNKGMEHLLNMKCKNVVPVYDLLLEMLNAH

Regarding `Oc1ccc2c(c1)COc1c-2cc2ccc(O)cc2c1-c1ccccc1` [Example 23, 7-Phenyl-5H-dibenzo[c,g]chromene-3,9-diol], the melting point (as a rule, the temperature, or range, at which the solid turns liquid) lay within 225 to 227 °C. Also, the concentration for half-maximal inhibition (IC50) (commonly the concentration that gives 50% inhibition) at human ERβ was determined as 4.1 nM. Moreover, the IC50 on human ERα (read-out: ERα (nM) IC50) amounted to 137 nM.

For the compound `COc1cccc(-c2c3c(cc4ccc(O)cc24)-c2ccc(O)cc2CO3)c1` [Example 34, 7-(3-Methoxyphenyl)-5H-dibenzo[c,g]chromene-3,9-diol], the melting point was 220 to 223 °C. The compound also registered an IC50 on human ERβ of 17 nM. Moreover, at human ERα (read-out: ERα (nM) IC50), the half-inhibitory concentration (IC50) turned out to be 434 nM.

For the compound `Oc1ccc2c(c1)COc1c-2cc2ccc(O)cc2c1-c1cccnc1` [Example 50, 7-(3-Pyridinyl)-5H-dibenzo[c,g]chromene-3,9-diol], the melting point was above 250 °C. On human ERβ, this compound yielded an IC50 of 14 nM. Moreover, the IC50 at human ERα (read-out: ERα (nM) IC50) was 1360 nM.

Regarding `Oc1ccc2c(c1)COc1cc3cc(O)ccc3cc1-2` [Example 4, 5H-Dibenzo[c,g]chromene-3,9-diol], the melting point is 231 to 233 °C. Further, at human ERβ, the IC50 is 7.9 nM. Besides, at human ERα (read-out: ERα (nM) IC50), the IC50 is 63 nM.

`Oc1ccc2c(c1)COc1c-2cc2ccc(O)cc2c1-c1cccc(OC(F)(F)F)c1` [Example 58, 7-(3-Trifluoromethoxyphenyl)-5H-dibenzo[c,g]chromene-3,9-diol] displayed a melting point of 110 to 112 °C. At human ERβ, this compound came in with an IC50 of 40 nM. Besides, the IC50 at human ERα (read-out: ERα (nM) IC50) is 661 nM.

In turn, `Cc1ccc(-c2c3c(cc4ccc(O)cc24)-c2ccc(O)cc2CO3)cc1` [Example 26, 7-(4-Tolyl)-5H-dibenzo[c,g]chromene-3,9-diol] gave a melting point of 238 to 240 °C. At human ERβ, this compound came in with an IC50 of 4.1 nM. Also, the half-inhibitory concentration (IC50) at human ERα (read-out: ERα (nM) IC50) is 137 nM.

As for `Oc1ccc2c(c1)COc1c-2cc2ccc(O)cc2c1Br` [Example 13, 7-Bromo-5H-dibenzo[c,g]chromene-3,9-diol], the IC50 on human ERβ was 1.2 nM; at human ERα (read-out: ERα (nM) IC50), 13 nM.

`Cc1ccc(-c2c3c(cc4ccc(O)cc24)-c2ccc(O)cc2CO3)cc1F` [Example 41, 7-(3-Fluoro-4-Methylphenyl)-5H-dibenzo[c,g]chromene-3,9-diol] had a melting point of 238 to 240 °C. The IC50 on human ERβ amounted to 28 nM. For the same compound, the IC50 at human ERα (read-out: ERα (nM) IC50) amounted to 655 nM.

Compound `Oc1ccc2c(c1)COc1c-2cc2ccc(O)cc2c1-c1ccccc1F` [Example 38, 7-(2-Fluorophenyl)-5H-dibenzo[c,g]chromene-3,9-diol] registered a melting point of 240 to 242 °C. The compound further displayed an IC50 at human ERβ of 1.4 nM. The IC50 at human ERα (read-out: ERα (nM) IC50) was found to be 73 nM.

Consider `CC(C)(C)c1ccc(-c2c3c(cc4ccc(O)cc24)-c2ccc(O)cc2CO3)cc1` [Example 60, 7-(4-tert-Butylphenyl)-5H-dibenzo[c,g]chromene-3,9-diol], for which the melting point was 162 to 165 °C. At human ERβ, this compound had an IC50 of 320 nM. Besides, at human ERα (read-out: ERα (nM) IC50), the IC50 came to 3480 nM.

As to `COc1c2c(cc3ccc(O)cc13)-c1ccc(O)cc1CO2` [Example 15, 7-Methoxy-5H-dibenzo[c,g]chromene-3,9-diol], the values for the half-maximal inhibitory concentration (IC50) on human ERβ and at human ERα (read-out: ERα (nM) IC50) were 4.3 nM and 169 nM, respectively.

`N#CCc1ccc(-c2c3c(cc4ccc(O)cc24)-c2ccc(O)cc2CO3)cc1` [Example 57, 7-(4-Cyanomethylphenyl)-5H-dibenzo[c,g]chromene-3,9-diol] returned a melting point of 240 to 242 °C. The compound also returned an IC50 at human ERβ of 71 nM. The IC50 at human ERα (read-out: ERα (nM) IC50) turned out to be 358 nM.

On to `COc1cncc(-c2c3c(cc4ccc(O)cc24)-c2ccc(O)cc2CO3)c1` [Example 53, 7-(5-Methoxy-3-Pyridyl)-5H-dibenzo[c,g]chromene-3,9-diol], for which the melting point is above 250 °C. In addition, the IC50 at human ERβ was 34 nM. Also, the IC50 at human ERα (read-out: ERα (nM) IC50) was 2420 nM.

Regarding `Oc1ccc2c(c1)COc1c-2cc2ccc(O)cc2c1-c1ccncc1` [Example 37, 7-(4-Pyridyl)-5H-dibenzo[c,g]chromene-3,9-diol], the IC50 was 3.05 nM at human ERβ and above 5000 nM at human ERα (read-out: ERα IC50 (cell prints uM)).

Turning to `COc1ccc(-c2c3c(cc4ccc(O)cc24)-c2ccc(O)cc2CO3)cn1` [Example 51], the results for the IC50 at human ERβ and on human ERα (read-out: ERα (nM) IC50) were 22 nM and 764 nM, respectively.

Regarding `N#Cc1ccc(-c2c3c(cc4ccc(O)cc24)-c2ccc(O)cc2CO3)cc1` [Example 40, 7-(4-Cyanophenyl)-5H-dibenzo[c,g]chromene-3,9-diol], the melting point was above 250 °C. At human ERβ, this compound displayed an IC50 of 9.2 nM. Moreover, the IC50 at human ERα (read-out: ERα (nM) IC50) worked out at 162 nM.

For `Oc1ccc2c(c1)COc1c-2cc2ccc(O)cc2c1-c1ccc(Cl)c(Cl)c1` [Example 55, 7-(3,4-Dichlorophenyl)-5H-dibenzo[c,g]chromene-3,9-diol], the melting point lay in the range of 143 to 145 °C. This compound gave an IC50 on human ERβ of 835 nM.

Turning to `Oc1ccc2c(c1)COc1c-2cc2ccc(O)cc2c1-c1cccc(F)c1` [Example 32, 7-(3-Fluorophenyl)-5H-dibenzo[c,g]chromene-3,9-diol], the melting point lay within 225 to 227 °C. Besides, at human ERβ, the IC50 was determined as 3.3 nM. In addition, the IC50 on human ERα (read-out: ERα (nM) IC50) worked out at 93 nM.

For the compound `COc1ccncc1-c1c2c(cc3ccc(O)cc13)-c1ccc(O)cc1CO2` [Example 51, 7-(4-Methoxy-3-Pyridyl)-5H-dibenzo[c,g]chromene-3,9-diol], the melting point was above 220 °C.

`Oc1ccc2c(c1)COc1c-2cc2ccc(O)cc2c1-c1cccc(C(F)(F)F)c1` [Example 43, 7-(3-Trifluoromethylphenyl)-5H-dibenzo[c,g]chromene-3,9-diol] had a melting point of 228 to 231 °C. For the same compound, the IC50 at human ERβ was determined as 10 nM. The IC50 on human ERα (read-out: ERα (nM) IC50) worked out at 263 nM.

For the compound `Oc1ccc2c(c1)COc1c-2cc2ccc(O)cc2c1-c1cccc(Cl)c1` [Example 33, 7-(3-Chlorophenyl)-5H-dibenzo[c,g]chromene-3,9-diol], the melting point is 243 to 246 °C. Further, the IC50 at human ERβ was 18 nM. Moreover, the IC50 at human ERα (read-out: ERα (nM) IC50) was 63 nM.

As for `Oc1ccc2c(c1)COc1c-2cc2ccc(O)cc2c1Cl` [Example 12, 7-Chloro-5H-dibenzo[c,g]chromene-3,9-diol], the results for the 50% inhibitory concentration (IC50) on human ERβ and at human ERα (read-out: ERα (nM) IC50) were 1.5 nM and 15 nM, respectively.

The compound `Cc1cc(C)cc(-c2c3c(cc4ccc(O)cc24)-c2ccc(O)cc2CO3)c1` [Example 63, 7-(3,5-Dimethylphenyl)-5H-dibenzo[c,g]chromene-3,9-diol] came in with a melting point of 220 to 223 °C.

As for `COc1c2c(c(Cl)c3ccc(O)cc13)-c1ccc(O)cc1CO2` [Example 20, 12-Chloro-7-methoxy-5H-dibenzo[c,g]chromene-3,9-diol], the values for the IC50 at human ERβ and on human ERα (read-out: ERα (nM) IC50) were 1.4 nM and 13 nM, respectively.

The compound `Oc1ccc2c(c1)COc1c-2cc2ccc(O)cc2c1-c1ccc(F)c(F)c1` [Example 36, 7-(3,4-Difluorophenyl)-5H-dibenzo[c,g]chromene-3,9-diol] showed a melting point of 235 to 237 °C. The compound further registered an IC50 at human ERβ of 6.2 nM. Also, the IC50 on human ERα (read-out: ERα (nM) IC50) was 206 nM.

In the case of `Oc1ccc2c(c1)COc1c-2cc2ccc(O)cc2c1-c1ccncc1` (as salt: HCl) [Example 37, 7-(4-Pyridyl)-5H-dibenzo[c,g]chromene-3,9-diol], the melting point is above 250 °C.

As for `COc1c2c(c(Br)c3ccc(O)cc13)-c1ccc(O)cc1CO2` [Example 19, 12-Bromo-7-methoxy-5H-dibenzo[c,g]chromene-3,9-diol], the IC50 on human ERβ stood at 3.3 nM; at human ERα (read-out: ERα (nM) IC50), 12 nM.

Regarding `Oc1ccc2c(c1)COc1c-2cc2ccc(O)cc2c1-c1ncccn1` [Example 52, 7-(Pyrimidyl)-5H-dibenzo[c,g]chromene-3,9-diol], the IC50 was 60 nM at human ERβ and 1600 nM on human ERα (read-out: ERα (nM) IC50).

Take `C=Cc1c2c(cc3ccc(O)cc13)-c1ccc(O)cc1CO2` [Example 16, 7-Vinyl-5H-dibenzo[c,g]chromene-3,9-diol]: the IC50 at human ERβ is 2 nM; at human ERα (read-out: ERα (nM) IC50), 44 nM.

For `Oc1ccc2c(c1)COc1c-2cc2ccc(O)cc2c1-c1cccc2ccccc12` [Example 61, 7-(Naphthyl)-5H-dibenzo[c,g]chromene-3,9-diol], the IC50 on human ERα (read-out: ERα (nM) IC50) worked out at 172 nM.

The compound `Oc1ccc2c(c1)COc1ccc3ccc(O)cc3c1-2` [Example 5, 5H-Dibenzo[c,f]chromene-3,11-diol] showed a melting point of 199 to 201 °C.
